Laboratory results reported in US8232099B2, “Method for transcription/degradation dual control of protein by antibiotic” (Japan Science and Technology Agency, priority 2007, dated 2012).
Residues, ends and D or L forms follow the SMILES beside them. *: point of attachment. Cbz = O=C(OCc1ccccc1)*

Key:
Type in all cases: cell-based, human
pEB6CAG-TetRhCre = experiment: Cre recombination reporter in HEp-2, control by protein degradation alone; conditions: 1.0 μg/ml doxycycline
Excerpt: (§3) As vectors to control the expression of the lambda phage Cre protein, three types of vectors were constructed for: control by protein degradation only, control by transcription only and dual control. […] The expression effect of Cre can be detected simply from this change in fluorescence wavelength (FIG. 10).

pOSTet15-TetRhCre = experiment: Cre recombination reporter (Venus to DsRed1) in HEp-2, dual control; parameters: cells displaying red fluorescence only: dose or concentration left out as unconfirmed
Excerpt: As vectors to control the expression of the […] Cre protein, three types of vectors were constructed for: control by protein degradation only, control by transcription only and dual control. […] Three types of vectors were constructed, “pEB6CAG-TetRhCre”, which enables control by degradation alone, and created by turning the hCre cDNA into TetRhCre which enables degradation control by doxycycline, and which was then integrated into the constitutive gene expression vector “pEB6CAG” described above; “pOSTet15-hCre”, which enables control by transcription alone and was created by integrating hCre cDNA into “pOSTet15”: “pOSTet15-TetRhCre”, which enables dual control and created by integrating TetRhCre into “pOSTet15”. In addition to these, as a monitoring vector for confirming the DNA recombination effect by the Cre protein, a recombination reporter vector in which the yellow fluorescent protein Venus was flanked by loxP sequences and the red fluorescent protein DsRed1 was placed downstream thereof, “pEB6CAG-Venus-lox-R1-SRZ” (FIG. 10), was also constructed. […] The expression effect of Cre can be detected simply from this change in fluorescence wavelength (FIG. 10).
Using a commercially available lipofection reagent, this DNA was introduced into the human cell line HEp-2, the cell line was cultured for four days in the presence of 1.5 mg/ml G418 and 0.1 mg/ml zeocin, and only cells with the two species of DNA introduced were selected. Fluorescences at two wavelengths, yellow and red, were measured with a flow cytometer.
Next, comparison on the capabilities was performed, between when Cre protein expression regulation is carried out by protein degradation control alone and transcription control alone, and the dual control system of the present invention. […]
Next, analyses were performed on the influence of the concentration of doxycycline exerted on recombination efficiency. Two species, the vector for Cre dual control and the recombination reporter vector described above, were introduced into a cell, and after selection over […] efficiency.

pOSTet15-hCre = experiment: Cre recombination reporter in HEp-2, control by transcription alone; conditions: 1.0 μg/ml doxycycline
Excerpt: as §3

mutant TetR-EGFP = experiment: Flow cytometer fluorescence of HEp-2 cells expressing mutant TetR-EGFP; conditions: various concentrations
Excerpt: (§1) All of or any two mutations in combination from three types of mutations, which substitute aspartic acid at the 95th position with asparagine, leucine at the 101st position with serine and glycine at the 102nd position with aspartic acid, were introduced into the tetracycline repressor (TetR), which is an Escherichia coli protein that binds to the antibiotic tetracycline (Tet). The procedure was as follows:
An oligonucleotide encoding an amino acid sequence containing the amino acid substitution to be introduced was synthesized, and this was used to prepare a DNA fragment containing a mutation by PCR reaction. […]
(§2) An oligo-DNA was synthesized, having a base sequence in which the termination codon has been substituted so as to encode another amino acid instead of the termination codon in the TetR gene, and downstream thereof, a sequence that is recognized and cut by a restriction enzyme; this was used to carry out a PCR reaction to prepare a DNA fragment encoding TetR with no termination codon, and this was substituted with the corresponding site on the DNA encoding the wild-type gene. Then, the DNA was cut by a restriction enzyme and ligated with the upstream side of a DNA fragment encoding EGFP in such a way that the translation open reading frames for protein synthesis match (FIG. 1A). […]

[1] = tested on: pOSTet15-eTetREGFP and pOSTet15-hTetREGFP; experiment: EGFP expression induction in HEp-2, dual control of transcription and degradation
Excerpt: A cDNA was integrated into the constitutive gene expression vector “pEB6CAG” or the vector “pOSTet15” enabling transcription-regulated expression through doxycycline, which the present inventors developed by applying the methods in Japanese National-phase PCT Laid-Open Patent Publication No. 2003-515314 (the entirety of which is incorporated herein by reference). The cDNA to be expressed integrates a simple fluorescent protein EGFP, or eTetREGFP or hTetREGFP, which degradation control is enabled by doxycycline. […]
Using a commercially available lipofection reagent, this DNA was introduced into the human cell line HEp-2, the cell line was cultured for four days in the presence of 1.5 mg/ml G418, and only cells with the DNA introduced were selected. These cells were subjected to a flow cytometer and the intensity of fluorescence by EGFP was measured cell by cell to determine the average fluorescence intensity thereof.

wild-type TetR-EGFP = molecular target: T1, wild-type TetR-EGFP (Escherichia coli, UniProt P04483); experiment: Flow cytometer fluorescence of HEp-2 cells expressing wild-type TetR-EGFP; conditions: 100 μg/ml MG132, 12 hours
T1 construct: prepare a DNA fragment encoding TetR with no termination codon; expressed in transfected cells; host or cells: human cell line HEp-2, vector pEB6CAG
Excerpt: as §1
Next, cDNAs encoding TetR-EGFP in which wild-type TetR gene and mutation-introduced TetR gene, respectively, are fused with green fluorescent protein (EGFP) were created. The procedure was as follows.
as §2

T1 sequence (P04483 whole entry, the tested form may be a part): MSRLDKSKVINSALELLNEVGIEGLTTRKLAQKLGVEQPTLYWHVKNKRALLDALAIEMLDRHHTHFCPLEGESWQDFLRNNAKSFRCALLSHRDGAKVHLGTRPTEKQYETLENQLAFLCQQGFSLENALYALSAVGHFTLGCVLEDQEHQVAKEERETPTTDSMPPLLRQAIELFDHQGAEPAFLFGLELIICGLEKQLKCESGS

SMILES	cytotoxicity when doxycycline was added (pEB6CAG-TetRhCre)	cells displaying red fluorescence only (pOSTet15-TetRhCre)	decrease in cell count due to cytotoxicity (pOSTet15-TetRhCre; 1.0 μg/ml doxycycline, treated for three days)	cells changed to red fluorescence (pOSTet15-TetRhCre; 1.0 μg/ml doxycycline, treatment of only one day)	cells in which red fluorescence was detected (red only plus both yellow and red) (pOSTet15-TetRhCre; 1 mg/ml doxycycline)	concentration needed to ensure that recombination occurs (pOSTet15-TetRhCre; four concentration steps from 0.001 μg/ml to 1.0 μg/ml)	cytotoxicity when doxycycline was added (pOSTet15-hCre)	concentration at which enhancement of fluorescence started to be observed (mutant TetR-EGFP)	concentration at which the maximum intensity of fluorescence was reached (mutant TetR-EGFP)	induction ratio of fluorescence, doxycycline added vs not added [1]	change in intensity of fluorescence (wild-type TetR-EGFP)
C[C@H]1c2cccc(O)c2C(=O)C2=C(O)[C@]3(O)C(=O)C(C(N)=O)=C(O)[C@@H](N(C)C)[C@@H]3[C@@H](O)[C@@H]21 [doxycycline]	killing cells	60%	almost no decrease in cell count	≥ 70%	≥ 70%	1.0 µg/mL	cytotoxicity was observed	≥ 0.05 µg/mL	1.5 µg/mL	≥ 400 times	–
CC(C)C[C@@H](C=O)NC(=O)[C@H](CC(C)C)NC(=O)[C@H](CC(C)C)NC(=O)OCc1ccccc1 [MG132] (Cbz-Leu-Leu-Leu-aldehyde)	–	–	–	–	–	–	–	–	–	–	no major change
